Reference: patent US11066423B2, “Monomeric bimetal hydroxycitric acid compounds and methods of making and using the same” (GLYKON TECHNOLOGIES GROUP, LLC, priority 2016, dated 2021)
One block for each compound: values may come before it.

Tests used:
[1] = Conductivity of solutions (electrical conductivity, HACH Conductivity/TDS meter); assay type: physicochemical
Source text: The structure of the subject compounds (e.g., as described herein) can be deduced using a conductance meter to observe the extent of dissociate of the first and/or second metals from the compounds. In an experiment described below equimolar samples and comparative electrolyte conductance to K-acetate solution as a standard, data may be obtained which is characteristic of electrolyte binary conductants. […] The KMgHCA solution in water may have a pH 8-10 depending on the concentration. Under this condition, the heterocyclic anion formed will tend toward a stable form rather than an ionizable one.
Several experiments investigating the electrical conductivities of solutions of KMgHCA, KZnHCA and KMnHCA were performed. The equipment used was HACH Conductivity/TDS meter, P/N=4460-00.
Materials: KMgHCA.4H2O, KZnHCA.2H2O, KMnHCA.2H2O were prepared using methods described herein. KC2H3O2 and […] was obtained from Merck. H2O used was demineralized water.
General procedure: All the HCA compounds and Acetate were weighed and placed in a volumetric flask and dissolved with demineralized water to one liter solution and then they were tested the conductivity (EC).

Osteoporosis = assay: Example 14: comparison of KCaHCA and/or KMgHCA compositions, single subject; assay type: in vivo, human; conditions: for symptoms of osteoporosis: 200 mg 3 times a day after meals; for subject's condition during the regimen: 200 mg doses 3 times a day, sequential regimens in the same subject after 3 months of the blend
Protocol: • Subject: (cited as Example 12, above) • • Problem: Osteoporosis Treatment: Materials were consumed 3 times a day after meals. • Experiment 1. Blending 150 mg KMgHCA.8H2O+50 mg KCaHCA.3H2O • A 200 mg mixture of KCaHCA (25%) and KMgHCA (75%) prepared according to the subject methods was used. The actual percentage of calcium was (40/338)×25%=2.96%. Since KCaHCA.3H2O was used the percentage of magnesium in the composition was (24/412)×75%=4.37%. Since KMgHCA.8H2O was used, the ratio Ca:Mg=0.15:0.36 in mmol. • Experiment 2. 200 mg KMgHCA.8H2O • Experiment 3.

[2] = test system: osteoporosis and calcification on hand and leg; assay: Example 13: comparison of different bimetal regimes (KMg vs. KCa vs. combination), two subjects; assay type: in vivo, human; set-up: key to Treatment performance: + +: very good performance; + −: good but slight complaint
Protocol: Subject I: a person, 40 kg (cited in Example 11, above)
Subject II: a person; 72 kg
• Treatment: A. Mixture 25% KCa HCA+75% KMg HCA bimetals (100-200 mg) • B. Only KMg HCA bimetal Results: […]

[3] = test system: de novo lipogenesis (DNL); conditions: obese subjects, 6 g HCA/day for 5 days; cited from earlier work
[4] = test system: de novo lipogenesis (DNL); assay: Decrease of de novo lipogenesis in rats (literature); assay type: in vivo; conditions: extrapolated from rats
Source text: Dosages of various HCA compositions found to be effective are quite large, indeed beyond the normal range for pharmaceutical products, with efficacy that is highly variable. […] A later study found a significant, yet limited effect after 7 days of a diet designed specifically to induce de novo lipogenesis in humans. (Physiol Behay. 2006 Jul. 30; 88(4-5):371-81). See also, Nutr Metab (Lond). 2005 Sep. 13; 2:23.

[5] = cited from earlier work
[6] = 0.3 mmol/l in demineralized water, no additive

E. C (μS/cm) [1, 6]: 56.06 μS/cm
SMILES: CC(=O)[O-].[K+] [KC2H3O2, K-acetate, reference compound]

SMILES: O=C1CC(O)(C(O)C(=O)[O-])C(=O)[O][Mg][O]1.[K+] (stereo not drawn) [KMgHCA, Potassium Magnesium Bimetal HCA Compound]
κ value contribution of Mg—O bond (half of the 2 bond contribution) ([1]; 0.3 mmol/l): 2.095 μS/cm | E. C (μS/cm) [1, 6]: 60.25 μS/cm | E. C (μS/cm) ([1]; 0.3 mmol/l, additive 10 mg gliserol): 60.23 μS/cm | E. C (μS/cm) ([1]; 0.3 mmol/l, additive 10 mg glucose): 60.29 μS/cm | 2 bond of Mg—O contribution to κ value ([1]; run 2 minus run 1 (60.25-56.06)): ~4.19 μS/cm | symptoms of osteoporosis (Osteoporosis): partial improvement | subject's condition during the regimen (Osteoporosis): slight difficult to walk because feeling of burning sensation in their feet | Treatment performance ([2]; Patient II (72 kg)): + − | observed result following treatment ([2]; Subject II): could stand on their feet | reduction of symptoms ([2]; Subject II): partial reduction of symptoms

SMILES: O=C([O-])C[C@@](O)(C(=O)[O-])[C@H](O)C(=O)[O-].[Ca+2].[K+] [KCaHCA]
symptoms of osteoporosis (Osteoporosis): not effective | subject's condition during the regimen (Osteoporosis): unable to move their leg

SMILES: O=C(O)CC(O)(C(=O)O)C(O)C(=O)O (stereo not drawn) [HCA, Hydroxycitric acid]
inhibition of DNL / promotion of fatty acid oxidation [3]: failed to inhibit DNL | effective dose extrapolated to a 70 kg human being [4]: approximately 4.5 g/day

SMILES: O=C1CC(O)(C(O)C(=O)[O][Mg][O]C(=O)C(O)C2(O)CC(=O)[O][Mg][O]C2=O)C(=O)[O][Mg][O]1 (stereo not drawn) [Mg3(HCA)2•2H2O, reference compound]
E. C (μS/cm) ([1]; 0.1 mmol/l in demineralized water (equimolar in Mg2+ to run 8)): 31.2 μS/cm

E. C (μS/cm) [1, 6]: 32.3 μS/cm
SMILES: CC(=O)[O-].CC(=O)[O-].O.O.O.O.[Mg+2] [Mg(CH3COO)2•4H2O, reference compound]

SMILES: O=C(O)CO [glycolic acid]
pKa [5]: approx 3.83
